Results on 3 compounds are retold here after PMC5643545, “A novel library of -arylketones as potential inhibitors of α-glucosidase: Their design, synthesis, in vitro and in vivo studies” (Scientific Reports, 2017).

Structures are written as SMILES. Bounds are passed on as bounds.

Series [1] concerns the target T1, α-mannosidase (jack bean origin) (Canavalia ensiformis, UniProt C0HJB3).
T1 construct: purchased Sigma Aldrich; host or cells: jack bean
T1 sequence (C0HJB3 1-981): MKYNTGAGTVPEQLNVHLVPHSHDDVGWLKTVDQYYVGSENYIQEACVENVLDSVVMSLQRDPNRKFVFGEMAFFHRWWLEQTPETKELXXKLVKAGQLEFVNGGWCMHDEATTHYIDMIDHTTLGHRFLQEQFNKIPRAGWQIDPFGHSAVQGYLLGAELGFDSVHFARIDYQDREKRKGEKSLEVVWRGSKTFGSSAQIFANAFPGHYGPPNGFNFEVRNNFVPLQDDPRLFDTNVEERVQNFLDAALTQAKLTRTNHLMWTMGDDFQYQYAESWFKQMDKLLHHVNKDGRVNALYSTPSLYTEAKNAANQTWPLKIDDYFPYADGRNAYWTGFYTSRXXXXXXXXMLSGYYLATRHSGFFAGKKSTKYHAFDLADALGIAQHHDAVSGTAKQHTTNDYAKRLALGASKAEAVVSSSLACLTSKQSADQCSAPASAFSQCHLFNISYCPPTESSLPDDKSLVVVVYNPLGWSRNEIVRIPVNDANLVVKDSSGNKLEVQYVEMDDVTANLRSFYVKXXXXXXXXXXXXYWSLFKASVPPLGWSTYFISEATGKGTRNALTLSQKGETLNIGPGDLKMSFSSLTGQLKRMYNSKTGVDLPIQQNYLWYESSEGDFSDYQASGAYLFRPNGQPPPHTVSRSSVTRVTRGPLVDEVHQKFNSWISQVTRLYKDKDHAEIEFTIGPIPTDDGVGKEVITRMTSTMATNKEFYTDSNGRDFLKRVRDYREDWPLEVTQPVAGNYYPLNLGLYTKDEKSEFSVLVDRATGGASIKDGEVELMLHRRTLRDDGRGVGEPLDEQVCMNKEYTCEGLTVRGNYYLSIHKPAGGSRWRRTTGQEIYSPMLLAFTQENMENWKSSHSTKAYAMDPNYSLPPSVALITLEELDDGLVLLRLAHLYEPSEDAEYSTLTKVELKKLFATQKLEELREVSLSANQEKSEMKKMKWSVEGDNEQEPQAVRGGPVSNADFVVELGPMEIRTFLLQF
In words: α-mannosidase inhibition assay, 96-well. The series is classed as biochemical. The settings on record: two independent assays, performed in duplicate; read-out: IC50s α-mannosidase (jack bean). As for the experimental part: (§1) To assess the inhibitory effect and also the extent of selectivity our library was against α-glucosidase (yeast origin), α-fucosidase (bovine kidney origin) and α-mannosidase (jack bean origin) (in 96-well plates employing 4-nitrophenyl-α-D-glucopyranoside (PNPG) as substrate) (Table 1). The test compounds were dissolved and diluted in dimethyl sulfoxide (DMSO). They were placed in the plate along with the substrate and 10 mM of potassium […] buffer. They were then reacted with appropriate enzymes. After incubating the plates for ten minutes, the absorbance of the wells were measured at […]. The increase in […] (ΔA) was compared against the control i.e. buffer.
(§2) The inhibitory effect of the synthesized compounds on α-glucosidase (yeast origin), α-fucosidase (bovine kidney origin) and α-mannosidase (jack bean origin) inhibitory activity was determined in 96-well plates employing the substrate PNPG and 4-nitrophenyl α-D-glucopyranoside according to the procedure previously reported by Ferreres et al.[42]. […] The absorbance was measured spectrophotometrically at 430 nm (Spectra Max M5e micro plate reader). The increase in absorbance (ΔA) was compared with that of the control (buffer instead of test compound) to compute the inhibitory concentrations (IC50) which was determined from two independent assays, performed in duplicate. […]

Series [2] concerns the target T2, α-fucosidase (bovine kidney origin) (Bos taurus, UniProt Q2KIM0).
T2 construct: purchased Sigma Aldrich; host or cells: bovine kidney
T2 sequence (Q2KIM0 23-468): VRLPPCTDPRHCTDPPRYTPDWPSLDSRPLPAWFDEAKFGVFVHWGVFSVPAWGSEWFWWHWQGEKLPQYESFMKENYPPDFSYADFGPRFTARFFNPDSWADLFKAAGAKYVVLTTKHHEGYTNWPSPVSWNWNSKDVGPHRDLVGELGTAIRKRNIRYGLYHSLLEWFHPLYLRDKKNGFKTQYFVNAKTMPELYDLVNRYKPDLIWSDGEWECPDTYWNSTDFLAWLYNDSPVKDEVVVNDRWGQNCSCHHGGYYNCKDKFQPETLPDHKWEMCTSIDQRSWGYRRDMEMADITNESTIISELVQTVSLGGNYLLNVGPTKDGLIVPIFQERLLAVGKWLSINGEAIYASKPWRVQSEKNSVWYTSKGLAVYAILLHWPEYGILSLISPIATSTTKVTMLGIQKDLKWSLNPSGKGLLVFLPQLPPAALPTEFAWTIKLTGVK
Nature of the series: α-fucosidase inhibition assay, 96-well. The series is classed as biochemical. The settings on record: two independent assays, performed in duplicate; read-out: IC50s α-fucosidase (bovine kidney). As for the experimental part:
as §1, §2

Series [3] has as its target T3, α-glucosidase (yeast origin) (Saccharomyces cerevisiae, UniProt P53341).
T3 construct: purchased Sigma Aldrich
In words: α-glucosidase (yeast) inhibition assay, PNPG substrate, 96-well. The series is classed as biochemical. The settings on record: two independent assays, performed in duplicate, 37 °C, 10 min, read-out: IC50s α-glucosidase (yeast).
Experimental: The test compounds were dissolved and diluted in dimethyl sulfoxide (DMSO). They were placed in the plate along with the substrate and 10 mM of potassium sulphate buffer. They were then reacted with appropriate enzymes. After incubating the plates for ten minutes, the absorbance of the wells were measured at 430 nM. The increase in abundance (ΔA) was compared against the control i.e. buffer.
The inhibitory effect of the synthesized compounds on α-glucosidase (yeast origin), α-fucosidase (bovine kidney origin) and α-mannosidase (jack bean origin) inhibitory activity was determined in 96-well plates employing the substrate PNPG and 4-nitrophenyl α-D-glucopyranoside according to the procedure previously reported by Ferreres et al.[42]. Prior to use, all test compounds were solubilised in solvent, dimethylsulfoxide (DMSO), and then further diluted in DMSO to acquire the desired final maximum test concentration. […] The absorbance was measured spectrophotometrically at 430 nm (Spectra Max M5e micro plate reader). The increase in absorbance (ΔA) was compared with that of the control (buffer instead of test compound) to compute the inhibitory concentrations (IC50) which was determined from two independent assays, performed in duplicate.

A further series concerns NA-STZ-diabetic mice. Set-up: method as in PMID 20879744. Conditions: 10, 31.2 and 56.2 mg/Kg; cited from earlier work.
On the set-up of series [4]: method as in doi:10.1016/S0065-7743(08)60834-9. The settings on record: cited from earlier work.

T3 sequence (P53341 whole entry): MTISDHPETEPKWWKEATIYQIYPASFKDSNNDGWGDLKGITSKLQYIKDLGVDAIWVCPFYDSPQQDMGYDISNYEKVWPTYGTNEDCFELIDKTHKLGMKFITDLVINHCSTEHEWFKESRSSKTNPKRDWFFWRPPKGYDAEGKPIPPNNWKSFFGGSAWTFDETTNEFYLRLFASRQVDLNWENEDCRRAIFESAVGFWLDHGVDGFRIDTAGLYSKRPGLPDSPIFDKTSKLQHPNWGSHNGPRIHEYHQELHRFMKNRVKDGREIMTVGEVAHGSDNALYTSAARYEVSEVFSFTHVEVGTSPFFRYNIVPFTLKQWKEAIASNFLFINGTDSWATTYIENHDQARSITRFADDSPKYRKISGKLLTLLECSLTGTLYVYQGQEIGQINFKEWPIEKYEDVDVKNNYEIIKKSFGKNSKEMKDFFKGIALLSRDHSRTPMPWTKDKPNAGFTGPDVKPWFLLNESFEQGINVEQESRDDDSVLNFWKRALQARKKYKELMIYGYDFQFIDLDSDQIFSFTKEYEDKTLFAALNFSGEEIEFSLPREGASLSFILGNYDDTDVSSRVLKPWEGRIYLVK

On to `O=C(Cc1ccccc1Br)c1ccccc1C(=O)NCCc1ccccc1` [3o], for which the IC50 is above 50 µM in series [1], above 50 µM in series [2] and 6.93 µM in series [3]. Consider `CCCC=C1OC(=O)c2ccccc21` [compound 2], for which the blood glucose level result in the series with NA-STZ-diabetic mice is “lowered blood glucose level”. On to `CS(=O)(=O)c1ccc(-n2nc(C(F)(F)F)cc2-c2ccc(F)cc2)cc1` [SC-58125], for which the half-life in series [4] is ~ 200 h.
